These results are taken from patent publication US8158809B2 (priority 2003, dated 2012).

In the test the test system is HCT116. Nature of the test: Cell colony formation assay. The following applies: 72 hours with drug, colonies counted after 7 days. Format: cell-based. On the procedure:
This example provides directions for growing cells and testing compounds of the invention for their effect on the growth of the cells. All cells were purchased from DCTDC Tumor Repository, NCI, NIH.
The cells were incubated in a CO2 incubator at 37° C. for 5 hours for attachment to the bottom of Petri dishes. Drugs were made fresh in medium at ten times the final concentration, and then 0.3 ml of this stock solution was added to the 2.7 ml of medium in the dish. The cells were then incubated with drugs for 72 hours at 37° C. At the end of the incubation the drug-containing media were decanted, the dishes were rinsed with 4 ml of Hank's Balance Salt Solution (HBSS), 5 ml of fresh medium was added, and the dishes were returned to the incubator for colony formation. The cell colonies were counted using colony counter after incubation for 7 days for HCT116 cells and PC-3 cells and 8 days for VM46 cells, respectively. Cell survival (%) was calculated, as shown in Table I below for HCT 116 cells.

Turning to `COc1cc([C@@H]2c3cc4c(cc3[C@H](OC(=O)c3cc(C(=O)O[C@H]5c6cc7c(cc6[C@@H](c6cc(OC)c(OC)c(OC)c6)[C@H]6C(=O)OC[C@@H]65)OCO7)cc([N+](=O)[O-])c3)[C@H]3COC(=O)[C@H]23)OCO4)cc(OC)c1OC` [Compound 000331, Bis(Podophyllotoxin-4-O-ester) of 5-nitroisophthalic acid], the “In Vitro Efficacy: Survival (%) of HCT116” value (100 nM) was 62.56% and the “In Vitro Efficacy: Survival (%) of HCT116” value (1000 nM) is recorded as 0%.

With `COc1cc([C@@H]2c3cc4c(cc3[C@H](OC(=O)COc3ccc5c(C)c(Cl)c(=O)oc5c3)[C@H]3COC(=O)[C@H]23)OCO4)cc(OC)c1OC` [Compound 000405, Podophyllotoxin-4-O-ester of 7-(carboxymethoxy)-3-chloro-4-methylcoumarin], the “In Vitro Efficacy: Survival (%) of HCT116” value came to 90.45% (10 nM), 0% (100 nM) and 0% (1000 nM).

Consider `COc1cc(C2c3cc4c(cc3C(OC(=O)COc3ccc(I)cc3)C3COC(=O)C23)OCO4)cc(OC)c1OC` (stereo not drawn) [Compound 000614, Podophyllotoxin-4-O-ester of 4-iodophenoxyacetic acid], for which the “In Vitro Efficacy: Survival (%) of HCT116” value is, setting by setting: (10 nM) 84.99%; (100 nM) 0%; (1000 nM) 0%.

Regarding `COc1cc([C@@H]2c3cc4c(cc3[C@H](OC(=O)COc3ccc(F)cc3)[C@H]3COC(=O)[C@H]23)OCO4)cc(OC)c1OC` [Compound 000615, Podophyllotoxin-4-O-ester of 4-fluorophenoxyacetic acid], the “In Vitro Efficacy: Survival (%) of HCT116” value was 100% (10 nM), 0% (100 nM) and 0% (1000 nM).

For the compound `COc1cc(C2c3cc4c(cc3C(OC(=O)COc3cccc(Cl)c3)C3COC(=O)C23)OCO4)cc(OC)c1OC` (stereo not drawn) [Compound 000622, Podophyllotoxin-4-O-ester of 3-chlorophenoxyacetic acid], the “In Vitro Efficacy: Survival (%) of HCT116” value reads like this: (10 nM) 98.48%; (100 nM) 0%; (1000 nM) 0%.

Take `CC[C@@]1(OC(=O)COc2ccc(C(=O)O[C@H]3c4cc5c(cc4[C@@H](c4cc(OC)c(OC)c(OC)c4)C4C(=O)OCC43)OCO5)cc2)C(=O)OCc2c1cc1n(c2=O)Cc2cc3ccccc3nc2-1` (stereo partly drawn) [Compound 000801, Podophyllotoxin-4-O-ester of camptothecin-20-O-ester of 4-carboxylicphenoxyacetic acid]: the “In Vitro Efficacy: Survival (%) of HCT116” value (1 nM) stood at 99.83%, the “In Vitro Efficacy: Survival (%) of HCT116” value (10 nM) is 0%, the “In Vitro Efficacy: Survival (%) of HCT116” value (100 nM) came out at 0% and the “In Vitro Efficacy: Survival (%) of HCT116” value (1000 nM) is recorded as 0%.

As for `COc1cc(C2c3cc4c(cc3C(OC(=O)CCCc3ccc(N(CCCl)CCCl)cc3)C3COC(=O)C23)OCO4)cc(OC)c1OC` (stereo not drawn) [Compound 0003132, Podophyllotoxin-4-O-ester of 4-(4-dichloroethylamino) phenylbutyric acid], the “In Vitro Efficacy: Survival (%) of HCT116” value is, setting by setting: (100 nM) 97.65%; (1000 nM) 0%.

For `COc1cc([C@@H]2c3cc4c(cc3[C@@H](O[C@@H]3O[C@@H]5CO[C@@H](C)O[C@H]5[C@H](O)[C@H]3O)[C@H]3COC(=O)[C@H]23)OCO4)cc(OC)c1O` [Etoposide, reference compound], the “In Vitro Efficacy: Survival (%) of HCT116” value (10 nM) is 100%.
